# Tests used:
# mouse [1] = conditions: Subchronic oral toxicity in rodents, b6c3f1, Gavage/Intubation, dose end: 14 week, group: systemic
# mouse [2] = conditions: Multigenerational reproductive toxicity study, cd1, Oral, Gavage/Intubation, dose end: 2 generation
# mouse [3] = conditions: Carcinogenicity, b6c3f1, Oral, Gavage/Intubation, dose end: 2 year, group: systemic
# mouse [4] = conditions: Other (NonGuideline or Guideline Not Listed), cd1, Oral, Gavage/Intubation, dose end: 2 year, group: cannot be grouped
# mouse [5] = conditions: Multigenerational reproductive toxicity study, cd1, Oral, Gavage/Intubation, dose end: 1 generation
# mouse [6] = conditions: Subchronic oral toxicity in rodents, b6c3f1, Gavage/Intubation, dose end: 94 day, group: systemic, systemic / hematology / erythrocyte (rbc) count differential / erythrocyte (rbc) + systemic / hematology / hematocrit (hct) / hematocrit (…
# mouse [7] = conditions: Prenatal developmental toxicity study, swiss albino, Oral, Gavage/Intubation, dose end: 15 GD
# mouse [8] = conditions: Prenatal developmental toxicity study, cd1, Oral, Gavage/Intubation, dose end: 16 GD, group: developmental
# [9] = systemic / hematology / erythrocyte (rbc) count differential / erythrocyte (rbc) + systemic / hematology / hematocrit (hct) / hematocrit (…
# [10] = group: offspring, systemic / in life observation / body weight / offspring (pup) weight
# [11] = group: parental, systemic / in life observation / body weight / body weight + systemic / in life observation / body weight / dam weight + systemic / …
# [12] = group: parental, systemic / in life observation / body weight / body weight + systemic / pathology gross / sperm measure / sperm morphology + systemic / …
# [13] = group: reproductive, reproductive / offspring survival early / live fetuses / live fetuses
# [14] = group: reproductive, reproductive / reproductive performance / reproductive performance other / NOS + reproductive / reproductive performance / gestational …
# [15] = systemic / hematology / erythrocyte (rbc) count differential / erythrocyte (rbc) + systemic / hematology / mean corpuscular (cell) volume (…
# [16] = reproductive / reproductive performance / fertility / fertility + reproductive / offspring survival early / litter size / litter size + …
# [17] = group: parental, systemic / hematology / leukocyte (wbc) count differential / leukocyte (wbc) + systemic / hematology / mean corpuscular (cell) volume (mcv…
# [18] = group: parental, systemic / hematology / mean corpuscular (cell) volume (mcv) / mean corpuscular (cell) volume (mcv) + systemic / hematology / mean …
# [19] = group: reproductive, reproductive / reproductive performance / pregnancy / pregnancy + reproductive / reproductive performance / resorptions / resorptions + …
# [20] = group: developmental, systemic / in life observation / body weight / fetal weight
# [21] = group: maternal, systemic / in life observation / food consumption / food consumption
# [22] = developmental / developmental malformation / bone / supernumerary + systemic / in life observation / body weight / fetal weight
# [23] = systemic / in life observation / body weight / fetal weight
smiles,measurement,setting,value
Cc1cn([C@H]2C[C@H](N=[N+]=[N-])[C@@H](CO)O2)c(=O)[nH]c1=O [3'-Azido-3'-deoxythymidine],LEL,mouse [1]; [9],50 mg/kg/day
same,NEL,mouse [1]; [9],< 50 mg/kg/day
same,LOAEL,mouse [1]; systemic / in life observation / body weight / body weight gain + systemic / pathology microscopic / bone marrow / atrophy,800 mg/kg/day
same,NOAEL,mouse [1]; systemic / in life observation / body weight / body weight gain + systemic / pathology microscopic / bone marrow / atrophy + systemic / …,200 mg/kg/day
same,LEL,mouse [2]; [10],200 mg/kg/day
same,LOAEL,mouse [2]; [10],> 200 mg/kg/day
same,NEL,mouse [2]; [10],100 mg/kg/day
same,NOAEL,mouse [2]; [10],≥ 200 mg/kg/day
same,LOAEL,mouse [2]; [11],> 200 mg/kg/day
same,NOAEL,mouse [2]; [11],≥ 200 mg/kg/day
same,LEL,mouse [2]; [12],50 mg/kg/day
same,NEL,mouse [2]; [12],< 50 mg/kg/day
same,LEL,mouse [2]; [13],50 mg/kg/day
same,NEL,mouse [2]; [13],< 50 mg/kg/day
same,LOAEL,mouse [2]; [14],> 200 mg/kg/day
same,NOAEL,mouse [2]; [14],≥ 200 mg/kg/day
same,LEL,mouse [3]; [15],30 mg/kg/day
same,NEL,mouse [3]; [15],< 30 mg/kg/day
same,LOAEL,mouse [3]; systemic / pathology microscopic / vagina / hyperplasia,120 mg/kg/day
same,NOAEL,mouse [3]; systemic / pathology microscopic / vagina / hyperplasia + systemic / pathology microscopic / liver / adenoma/carcinoma combined + systemic…,60 mg/kg/day
same,NEL,mouse [4]; reproductive / reproductive performance / fertility / fertility,100 mg/kg/day
same,LEL,mouse [4]; [16],200 mg/kg/day
same,LOAEL,mouse [4]; [16],> 300 mg/kg/day
same,NOAEL,mouse [4]; [16],≥ 300 mg/kg/day
same,LOAEL,mouse [5]; [17],> 400 mg/kg/day
same,NOAEL,mouse [5]; [17],≥ 400 mg/kg/day
same,LEL,mouse [5]; [18],100 mg/kg/day
same,NEL,mouse [5]; [18],< 100 mg/kg/day
same,LEL,"mouse [5]; group: reproductive, reproductive / reproductive performance / pregnancy / pregnancy",200 mg/kg/day
same,NEL,"mouse [5]; group: reproductive, reproductive / reproductive performance / pregnancy / pregnancy + reproductive / reproductive performance / resorptions / resorptions",100 mg/kg/day
same,LOAEL,mouse [5]; [19],> 400 mg/kg/day
same,NOAEL,mouse [5]; [19],≥ 400 mg/kg/day
same,LEL,mouse [6],100 mg/kg/day
same,LOAEL,mouse [6],> 400 mg/kg/day
same,NEL,mouse [6],< 100 mg/kg/day
same,NOAEL,mouse [6],≥ 400 mg/kg/day
same,LEL,mouse [7]; [20],100 mg/kg/day
same,LOAEL,mouse [7]; [20],> 400 mg/kg/day
same,NEL,mouse [7]; [20],< 100 mg/kg/day
same,NOAEL,mouse [7]; [20],≥ 400 mg/kg/day
same,LEL,mouse [7]; [21],400 mg/kg/day
same,LOAEL,mouse [7]; [21],> 400 mg/kg/day
same,NEL,mouse [7]; [21],200 mg/kg/day
same,NOAEL,mouse [7]; [21],≥ 400 mg/kg/day
same,LOAEL,mouse [8]; [22],> 400 mg/kg/day
same,NOAEL,mouse [8]; [22],≥ 400 mg/kg/day
same,LEL,mouse [8]; [23],100 mg/kg/day
same,NEL,mouse [8]; [23],< 100 mg/kg/day

# From EPA's ToxRefDB 2
